# How the values were obtained:
# Male Sprague-Dawley rats [1] = assay: Rat elevated zero-maze study with racemic MBDB, R-MBDB, S-MBDB and chlordiazepoxide; conditions: for Dose showing a switch to an anxiolytic effect (magnitude of the reduction in SAPs): ip
# Description: Two opposite quadrants are enclosed by Perspex walls on both the inner and the outer edges of the platform, while the remaining two opposite quadrants are open being enclosed only by a Perspex “lip”. Animals will show a preference for the closed areas, and avoidance of the open sections is assumed to stem from a rodent's natural aversion to open, exposed spaces. A reduction in the amount of activity on the open areas is considered to reflect an increase in anxiety. The ethologically-based behavior stretched attend postures (SAP) from closed to open quadrants is assessed as an index of anxiety. […] Animals
# (§1) Male Sprague-Dawley 200-250 g (Envigo UK) rats were used. Animals were group-housed (5 per cage; cage size: 40×40×20 cm) in a temperature-controlled environment (22±2° C.), under a 12 h light-dark cycle (lights on: 08:00 hours) for one week prior to testing. Food and water were freely available. Number of animals per group=5.
# (§2) The elevated 0-maze comprises a black Perspex annular platform (105 cm diameter, 10 cm width) elevated to 65 cm above ground level, divided equally into four quadrants. Two opposite quadrants are enclosed by clear red Perspex walls (27 cm high) on both the inner and outer edges of the platform, while the remaining two opposite quadrants are surrounded only by a Perspex “lip” (1 cm high) which serves as a tactile guide to animals on these open areas.
# Subjects were weighed and tail marked before being injected. After a specified pretreatment time, subjects were placed in a closed quadrant and a 5-min test period were recorded on videotape for subsequent analysis. The maze was cleaned with 5% methanol/water solution and dried thoroughly between test sessions. Behavioural measures comprise percentage time spent on the open areas (% TO) and frequency of stretched attend postures (SAP) from closed to open quadrants. Since the control groups were all treated identically with the same vehicle these were combined to increase power. The Chlordiazepoxide groups were also treated identically with the same dose so these were also combined to increase power. Animals are scored as being in the open area when all four paws were in an open quadrant and in the closed area only when all four paws have passed over the open-closed divide.
# Thirty min later at T=0, rats were individually placed in a closed arm of the zero-maze and behavior assessed by a “blind” observer using remote video monitoring over the subsequent 5 min. The animals were then removed and the maze carefully wiped with 5% methanol/water solution before the next test was begun.
# Thirty min later at T=0, rats were individually placed in a closed arm of the zero-maze and behavior was assessed by a “blind” observer using remote video monitoring over the subsequent 5 min. The animal were then removed and the maze carefully wiped with 5% methanol/water solution before the next test was begun.
# Thirty min later at T=0, rats were individually placed in a closed arm of the zero-maze and behavior was assessed by a “blind” observer using remote video monitoring over the subsequent 5 min.
# [2] = system: participants diagnosed with at least moderate post-traumatic stress disorder (PTSD); assay: Double-blind, randomized, placebo-controlled clinical trial of MBDB-assisted psychotherapy in PTSD; type: in vivo, human; conditions: for Change in CAPS-5 assessment: Study Conclusion, hydrochloride salt with psychotherapy; for Change in CAPS-5 assessment / Clinician-rated functional impairment score (SDS) / Depression (HAM-D): vs placebo; for Daytime sleepiness (ESS): human, in vivo; for Total dosage of drug to achieve significant mean reduction in CAPS-5: vs racemic MBDB-treated subgroup
# Method: A multicenter, randomized, double-blind, placebo-controlled trial is conducted to assess the efficacy and safety of MBDB-assisted psychotherapy versus psychotherapy with placebo control in participants diagnosed with at least moderate post-traumatic stress disorder (PTSD).
# This multicenter, randomized, double-blind, placebo-controlled trial is conducted at various sites in the United States with IRB approval from each study site. A flexible dose of MBDB hydrochloride salt or placebo, followed by a supplemental half-dose unless contraindicated by patient's previous response or medical history, is also administered during the Treatment Period with psychotherapy in at least 3 blinded monthly Experimental Sessions. The Supplemental Dose extends the duration of drug effects on the participants during an Experimental Session. MBDB test groups are further subdivided into specific groups receiving only racemic MBDB hydrochloride salt, S-MBDB hydrochloride salt, or R-MBDB hydrochloride salt. An optional Risk Evaluation and Mitigation Strategy (REMS) Protocol may be implemented for the racemic MBDB, S-MBDB, R-MBDB, and placebo-groups. The Treatment Period lasts for approximately 12 weeks. During the Treatment Period, each Experimental Session is followed by three Intervening Sessions of non-drug psychotherapy. Each Experimental Session involves an overnight stay. The Primary Outcome measure, the change in Clinician Administered PTSD Scale for DSM-5 (CAPS-5), is determined by a blinded Independent Rater (IR) pool multiple times throughout the study. The study consists of separate periods for each participant. Initially, prospective participants undergo a Screening Period involving an initial eligibility assessment, a medical history intake, informed consent, and enrollment of eligible participants. Next, a Preparation Period is undertaken for enrolled participants involving medication tapering and clinical baseline assessments to confirm each participant meets enrollment criteria. As part of the Preparation Period, a detailed assessment of co-morbidities to PTSD is recorded. Participants may remain on prescribed courses of selective serotonin reuptake inhibitor (SSRI) or serotonin and norepinephrine reuptake inhibitor (SNRI) treatment. Dosages and/or frequency of administration of a prescribed SSRI or SNRI may be adjusted to fit within study parameters. Participants may be required to taper a prescribed course of medication in order to maintain eligibility within the study. The Treatment Period consists of three monthly Experimental Sessions and associated Intervening Sessions of integrative behavioral psychotherapy. The Treatment Period lasts approximately 12 weeks. Following the Treatment Period is a Follow-up Period and Study Conclusion. During the Follow-up Period and Study Conclusion, participants complete 4 weeks with no study visits, followed by a Study Conclusion visit.
# This study compares the effects of three blinded Experimental Sessions of psychotherapy in combination with flexible doses of MBDB or placebo administered as described below. Non-drug preparatory and intervening psychotherapy sessions are also included. Patient's weight is determined for dosage calculation. Initial dose is 180 mg unless this will result in a dosage of less than 1.5 mg/kg of patient weight. Initial dose thereby adjusted upward in 50 mg increments to deliver the lowest dose possible of at least 1.5 mg/kg of patient weight. Initial dose for Experimental Session 2 and 3 is cumulative dose calculated by adding the initial dose plus REMS protocol dose used the previous Experimental Session for each patient.
# Randomization occurs prior to the initiation of Experimental Session 1. Each participant is provided the next randomized number in a sequence by a blinded study monitor. Participants are then randomized, according to a computer-generated randomization schedule, 1:1:1:1 to racemic MBDB, S-MBDB, R-MBDB, or placebo. […]
# [3] = Physical stability of MBDB salts at 40° C./75% RH; type: physicochemical
# Method: During the screen, a single crystal Maleate 1 of sufficient size and quality was obtained from a vapor diffusion experiment with ethanol and hexane. The crystal structure is reported elsewhere but the data confirmed the anhydrous/unsolved nature of the material. […] Two new crystalline forms of MBDB Maleate were observed during the screening designated as MBDB Maleate 2 and MBDB Maleate 3 (FIG. 96, 97). Additional characterization of these samples was conducted to better understand the nature of the materials produced, as shown below. MBDB Maleate 2 was generated once from a cooling crystallization from dioxane. The proton nuclear magnetic resonance (NMR) spectrum was consistent with a monomaleate salt of MBDB and contained residual dioxane. Only a limited amount of material was recovered so the only additional characterization that could be completed was differential scanning calorimetry (DSC). The DSC thermogram appears consistent with an anhydrous/unsolvated form with a likely melt at 96° C. (FIG. 100). […] An attempt was made to reproduce Maleate 2 using the same conditions and seeds of Maleate 2. PXRD analysis of the recovered solids however was consistent with Maleate 1. MBDB Maleate 3 was isolated from an evaporation experiment involving chloroform and ethyl acetate. NMR analysis of the material was consistent with a mono-maleate salt of MBDB. Thermal analysis was consistent with an anhydrous/unsolvated material with a likely melting point of 73° C. (FIG. 101). […] No additional characterization was completed on this sample due to the limited amount of material that was recovered.
# [4] = Dynamic vapor sorption (DVS) analysis with post-DVS XRPD; type: physicochemical; conditions: for Hygroscopicity by DVS: 25° C., 5 to 95% RH; for Hygroscopic?: based on moisture uptake at 95% observed during DVS analysis; for Post-DVS XRPD (form change): solids after DVS analysis
# Method: DVS analysis was carried out using a TA Instruments Q5000 Dynamic Vapor Sorption analyzer. The instrument was calibrated with standard weights and a sodium bromide standard for humidity. Approximately 5-25 mg of sample was loaded into a metal-coated quartz pan for analysis. The sample was analyzed at 25° C. with a maximum equilibration time of one hour in 10% relative humidity (RH) steps from 5 to 95% RH (adsorption cycle) and from 95 to 5% RH (desorption cycle). The movement from one step to the next occurred either after satisfying the equilibrium criterion of 0.01% weight change or, if the equilibrium criterion was not met, after one hour. The percent weight change values were calculated using Microsoft Excel®.
# Male Sprague-Dawley rats [5] = assay: Rat elevated zero-maze study with racemic MDE, R-MDE, S-MDE and chlordiazepoxide; conditions: positive control, 6 mg/kg ip
# Method: A reduction in the amount of activity on the open areas is considered to reflect an increase in anxiety. The ethologically-based behavior, stretched attend postures (SAP) from closed to open quadrants, is assessed as an index of anxiety. […] Animals
# as §1, §2
# Subjects were weighed and tail marked before being injected. After a specified pretreatment time, subjects were placed in a closed quadrant and a 5-min test period were recorded on videotape for subsequent analysis. The maze was cleaned with 5% methanol/water solution and dried thoroughly between test sessions. Behavioural measures comprise percentage time spent on the open areas (% TO) and frequency of stretched attend postures (SAP) from closed to open quadrants. Animals are scored as being in the open area when all four paws were in an open quadrant and in the closed area only when all four paws have passed over the open-closed divide.
# Thirty min later at T=0, rats were individually placed in a closed arm of the zero-maze and behavior was assessed by a “blind” observer using remote video monitoring over the subsequent 5 min. The animal was then removed and the maze carefully wiped with 5% methanol/water solution before the next test was begun.
# Thirty min later at T=0, rats were individually placed in a closed arm of the zero-maze and behavior assessed by a “blind” observer using remote video monitoring over the subsequent 5 min. The animal was then removed and the maze carefully wiped with 5% methanol/water solution before the next test was begun.
# Male Sprague-Dawley rats [6] = assay: Rat elevated zero-maze study with MDAI and chlordiazepoxide; type: in vivo; conditions: positive control, 6 mg/kg ip
# Method: Three rats from the vehicle group, 3 rats from the 2.5 mg/kg MDAI group, and 3 rats from the CDP group were tested on a separate day from the other rats.
# [7] = 5 mg/kg ip, continued anxiogenic effect
structure (smiles),measurement,setting,value
CCC(Cc1ccc2c(c1)OCO2)NC (racemic) [racemic MBDB],Frequency of stretched attend postures (SAP),Male Sprague-Dawley rats [1]; [7],reached significance
same,Frequency of stretched attend postures (SAP),Male Sprague-Dawley rats [1]; 10 mg/kg ip,consistent level of SAPs similar to the 5 mg/kg
same,Frequency of stretched attend postures (SAP),Male Sprague-Dawley rats [1]; 30 mg/kg ip,showed a trend toward significance
same,Dose showing a switch to an anxiolytic effect (magnitude of the reduction in SAPs),Male Sprague-Dawley rats [1],30 mg/kg
same,Change in CAPS-5 assessment,[2],significant mean reduction in CAPS-5 assessment compared to the placebo group
same,Daytime sleepiness (ESS),[2],significant improvement in lessening daytime sleepiness
same,Clinician-rated functional impairment score (SDS),[2],significant improvement in clinician-rated functional impairment score
same,Depression (HAM-D),[2],significant improvement depression
"CCC(Cc1ccc2c(c1)OCO2)NC.O=C(O)CCC(=O)O (single isomer, unassigned) [Succinate 1]",Physical Stability,[3]; 40° C./75% RH overnight,Tacky solids
"CCC(Cc1ccc2c(c1)OCO2)NC.O=C(O)CCC(=O)O (single isomer, unassigned) [Succinate 2]",Hygroscopicity by DVS,[4],possible hydrate formation at high RH conditions
same,Hygroscopic?,[4],Moderately
same,Physical Stability,[3]; 40° C./75% RH overnight,No change
"CNC1=Nc2ccc(Cl)cc2C(c2ccccc2)=[N+]([O-])C1 [CDP, Chlordiazepoxide, reference compound]",Frequency of stretched attend postures (SAP),Male Sprague-Dawley rats [5],significant reduction in SAPs
same,Percentage of time spent in the open arms (% TO),Male Sprague-Dawley rats [5],significant increase in time in the open arms for the R MDE group and S MDE group only
same,Frequency of stretched attend postures (SAP),"Male Sprague-Dawley rats [1]; positive control, 6 mg/kg ip",significant reduction in SAPs
same,Percentage of time in the open arms (% TO),"Male Sprague-Dawley rats [1]; positive control, 6 mg/kg ip",did not show significance over vehicle
same,Frequency of HDIPS,Male Sprague-Dawley rats [6],trend towards increased
same,Percentage of time in the open arms (% TO),Male Sprague-Dawley rats [6],significant increase in the percentage of time in the open arms
same,Total line crossings,Male Sprague-Dawley rats [6],trend towards increased
same,Total open arm entries,Male Sprague-Dawley rats [6],trend towards increased
CCC(Cc1ccc2c(c1)OCO2)NC.O=C(O)CC(O)(CC(=O)O)C(=O)O (stereo not drawn) [Citrate 1],Physical Stability,[3]; 40° C./75% RH overnight,Tacky solids
CCC(Cc1ccc2c(c1)OCO2)NC.O=C(O)/C=C/C(=O)O (stereo not drawn) [Fumarate 1],Physical Stability,[3]; 40° C./75% RH overnight,No change
CCC(Cc1ccc2c(c1)OCO2)NC.O=C(O)[C@@H](O)[C@H](O)[C@H](O)[C@@H](O)C(=O)O (stereo not drawn) [Galactarate 1],Physical Stability,[3]; 40° C./75% RH overnight,No change
CCC(Cc1ccc2c(c1)OCO2)NC.O=C(O)CCC(=O)O (stereo not drawn) [MBDB succinate Form 2],Hygroscopicity by DVS,[4],moderately hygroscopic
same,Post-DVS XRPD (form change),[4],no form change
same,Physical Stability,[3]; after 1 day at 40° C./75% RH,No visible change
CCC(Cc1ccc2c(c1)OCO2)NC.O=C(O)CC(=O)O (stereo not drawn) [Malonate 1],Physical Stability,[3]; 40° C./75% RH overnight,No change
CCC(Cc1ccc2c(c1)OCO2)NC.O=P(O)(O)O (stereo not drawn) [Phosphate 1],Hygroscopicity by DVS,[4],hygroscopic
same,Hygroscopic?,[4],Hygroscopic
same,Post-DVS XRPD (form change),[4],no form change
same,Physical Stability,[3]; 40° C./75% RH overnight,No change
same,Physical Stability,[3]; after 1 day at 40° C./75% RH,No visible change
CC[C@H](Cc1ccc2c(c1)OCO2)NC [R-MBDB],Frequency of stretched attend postures (SAP),Male Sprague-Dawley rats [1]; 10 mg/kg ip,consistent level of SAPs similar to the 5 mg/kg
same,Frequency of stretched attend postures (SAP),Male Sprague-Dawley rats [1]; 15 mg/kg ip,reduction in the number of SAPs compared to lower doses
same,Frequency of stretched attend postures (SAP),Male Sprague-Dawley rats [1]; 30 mg/kg ip,decreased the frequency of SAPs as effectively as the benzodiazepine chlordiazepoxide
same,Frequency of stretched attend postures (SAP),"Male Sprague-Dawley rats [1]; 30 mg/kg ip, listed as R MBDB",significantly reduced the number of SAPs
same,Dose showing a switch to an anxiolytic effect (magnitude of the reduction in SAPs),Male Sprague-Dawley rats [1],15 mg/kg
same,Change in CAPS-5 assessment,[2],significant mean reduction in CAPS-5 assessment compared to the placebo group
same,Daytime sleepiness (ESS),[2],significant improvement in lessening daytime sleepiness
same,Clinician-rated functional impairment score (SDS),[2],significant improvement in clinician-rated functional impairment score
same,Depression (HAM-D),[2],significant improvement depression
same,Total dosage of drug to achieve significant mean reduction in CAPS-5,[2],lower total dosage of drug compared to the racemic MBDB-treated subgroup
CC[C@@H](Cc1ccc2c(c1)OCO2)NC [S-MBDB],Frequency of stretched attend postures (SAP),Male Sprague-Dawley rats [1]; [7],reached significance
same,Frequency of stretched attend postures (SAP),Male Sprague-Dawley rats [1]; 10 mg/kg ip,rapid reduction in total SAPs
same,Frequency of stretched attend postures (SAP),Male Sprague-Dawley rats [1]; 15 mg/kg ip,reduction in the number of SAPs compared to lower doses
same,Frequency of stretched attend postures (SAP),Male Sprague-Dawley rats [1]; 30 mg/kg ip,decreased the frequency of SAPs as effectively as the benzodiazepine chlordiazepoxide
same,Magnitude of the reduction in SAPs among MBDB forms,Male Sprague-Dawley rats [1]; 30 mg/kg ip,greatest
same,Frequency of stretched attend postures (SAP),"Male Sprague-Dawley rats [1]; 30 mg/kg ip, listed as S MBDB",significantly reduced the number of SAPs
same,Dose showing a switch to an anxiolytic effect (magnitude of the reduction in SAPs),Male Sprague-Dawley rats [1],10 mg/kg
same,Change in CAPS-5 assessment,[2],significant mean reduction in CAPS-5 assessment compared to the placebo group
same,Daytime sleepiness (ESS),[2],significant improvement in lessening daytime sleepiness
same,Clinician-rated functional impairment score (SDS),[2],significant improvement in clinician-rated functional impairment score
same,Depression (HAM-D),[2],significant improvement depression
same,Adverse anxiogenic incidents,[2]; vs placebo-treated controls,without a significant increase in adverse anxiogenic incidents
same,Total dosage of drug to achieve significant mean reduction in CAPS-5,[2],lower total dosage of drug compared to the racemic MBDB-treated subgroup
CCC(Cc1ccc2c(c1)OCO2)NC.O=S(=O)(O)O (stereo not drawn) [Sulfate 1],Physical Stability,[3]; 40° C./75% RH overnight,Deliquesced
CCC(Cc1ccc2c(c1)OCO2)NC.Cc1ccc(S(=O)(=O)O)cc1 (stereo not drawn) [Tosylate 1],Physical Stability,[3]; 40° C./75% RH overnight,No change
